Common to all, as to assay type: binding
The target of one assay is T1, NPR1 (Arabidopsis thaliana, UniProt P93002).
T1 construct: N-terminal His6-MBP fusion (pET-MALHT), from E. coli, Ni-NTA and gel filtration
T1 sequence (P93002 1-593): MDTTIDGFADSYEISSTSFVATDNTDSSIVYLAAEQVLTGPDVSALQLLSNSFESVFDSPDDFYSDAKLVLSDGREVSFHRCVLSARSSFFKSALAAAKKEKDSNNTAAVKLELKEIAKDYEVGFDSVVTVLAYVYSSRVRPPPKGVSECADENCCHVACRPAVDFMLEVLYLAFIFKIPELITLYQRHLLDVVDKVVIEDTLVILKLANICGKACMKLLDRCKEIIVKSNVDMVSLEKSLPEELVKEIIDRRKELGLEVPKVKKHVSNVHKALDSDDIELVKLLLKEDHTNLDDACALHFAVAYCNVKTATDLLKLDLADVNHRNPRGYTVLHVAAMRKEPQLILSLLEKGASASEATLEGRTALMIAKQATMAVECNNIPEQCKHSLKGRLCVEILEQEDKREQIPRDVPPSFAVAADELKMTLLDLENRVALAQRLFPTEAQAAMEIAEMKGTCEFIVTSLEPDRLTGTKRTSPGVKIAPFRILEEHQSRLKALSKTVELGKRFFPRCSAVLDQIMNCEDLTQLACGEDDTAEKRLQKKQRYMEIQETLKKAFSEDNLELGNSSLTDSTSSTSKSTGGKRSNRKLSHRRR
As to the kind of experiment: UV photo-crosslinking, anti-SA immunoblot. As to conditions: 50 uM 4AzSA, PBS, on ice, 254 nm UV; covalent; competed by SA. A general note: Immunoblotting shows a protein as a band on a membrane.

The target in another assay is T2, HPR2 (Arabidopsis thaliana, UniProt Q9CA90).
T2 construct: N-terminal His6 (pET28a), from E. coli
T2 sequence (Q9CA90 1-313): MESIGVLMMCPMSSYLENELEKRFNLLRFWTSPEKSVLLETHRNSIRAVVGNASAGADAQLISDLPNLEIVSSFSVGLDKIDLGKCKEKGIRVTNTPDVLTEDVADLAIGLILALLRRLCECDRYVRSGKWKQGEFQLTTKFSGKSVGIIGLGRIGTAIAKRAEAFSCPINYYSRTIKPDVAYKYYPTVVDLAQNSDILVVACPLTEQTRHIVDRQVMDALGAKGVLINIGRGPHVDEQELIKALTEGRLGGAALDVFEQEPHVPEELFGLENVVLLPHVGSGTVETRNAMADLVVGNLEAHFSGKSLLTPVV
As to the kind of experiment: SPR competition on 3AESA chip; competition of 4AzSA photo-crosslinking. To be noted: 1-5 mM SA, HBS-EP pH 7.4 (SPR); competes with 3AESA and 4AzSA.

The next assay has as its target T3, SHM4 (Arabidopsis thaliana, UniProt O23254).
T3 construct: N-terminal His6 (pET28a), from E. coli
T3 sequence (O23254 1-471): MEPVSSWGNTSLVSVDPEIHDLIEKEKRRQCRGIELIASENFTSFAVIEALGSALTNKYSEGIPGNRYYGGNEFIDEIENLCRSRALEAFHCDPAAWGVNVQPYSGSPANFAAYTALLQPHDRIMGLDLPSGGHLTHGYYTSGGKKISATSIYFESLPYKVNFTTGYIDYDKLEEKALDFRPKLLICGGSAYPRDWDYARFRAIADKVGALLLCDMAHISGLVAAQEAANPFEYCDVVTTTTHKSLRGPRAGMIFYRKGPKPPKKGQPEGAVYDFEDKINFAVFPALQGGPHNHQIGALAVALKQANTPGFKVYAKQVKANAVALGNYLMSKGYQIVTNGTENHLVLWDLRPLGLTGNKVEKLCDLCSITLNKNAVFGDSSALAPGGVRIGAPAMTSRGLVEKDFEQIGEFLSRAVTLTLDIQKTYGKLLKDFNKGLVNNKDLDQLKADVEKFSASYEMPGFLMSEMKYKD
The description is as above. To be noted: 1-5 mM SA, HBS-EP pH 7.4 (SPR); competes with 3AESA and 4AzSA.

Another assay addresses T4, TPPII (Arabidopsis thaliana, UniProt F4JVN6).
T4 construct: gene TPP2; N-terminal His6 (pET28a), from E. coli
T4 sequence (F4JVN6 1-1380): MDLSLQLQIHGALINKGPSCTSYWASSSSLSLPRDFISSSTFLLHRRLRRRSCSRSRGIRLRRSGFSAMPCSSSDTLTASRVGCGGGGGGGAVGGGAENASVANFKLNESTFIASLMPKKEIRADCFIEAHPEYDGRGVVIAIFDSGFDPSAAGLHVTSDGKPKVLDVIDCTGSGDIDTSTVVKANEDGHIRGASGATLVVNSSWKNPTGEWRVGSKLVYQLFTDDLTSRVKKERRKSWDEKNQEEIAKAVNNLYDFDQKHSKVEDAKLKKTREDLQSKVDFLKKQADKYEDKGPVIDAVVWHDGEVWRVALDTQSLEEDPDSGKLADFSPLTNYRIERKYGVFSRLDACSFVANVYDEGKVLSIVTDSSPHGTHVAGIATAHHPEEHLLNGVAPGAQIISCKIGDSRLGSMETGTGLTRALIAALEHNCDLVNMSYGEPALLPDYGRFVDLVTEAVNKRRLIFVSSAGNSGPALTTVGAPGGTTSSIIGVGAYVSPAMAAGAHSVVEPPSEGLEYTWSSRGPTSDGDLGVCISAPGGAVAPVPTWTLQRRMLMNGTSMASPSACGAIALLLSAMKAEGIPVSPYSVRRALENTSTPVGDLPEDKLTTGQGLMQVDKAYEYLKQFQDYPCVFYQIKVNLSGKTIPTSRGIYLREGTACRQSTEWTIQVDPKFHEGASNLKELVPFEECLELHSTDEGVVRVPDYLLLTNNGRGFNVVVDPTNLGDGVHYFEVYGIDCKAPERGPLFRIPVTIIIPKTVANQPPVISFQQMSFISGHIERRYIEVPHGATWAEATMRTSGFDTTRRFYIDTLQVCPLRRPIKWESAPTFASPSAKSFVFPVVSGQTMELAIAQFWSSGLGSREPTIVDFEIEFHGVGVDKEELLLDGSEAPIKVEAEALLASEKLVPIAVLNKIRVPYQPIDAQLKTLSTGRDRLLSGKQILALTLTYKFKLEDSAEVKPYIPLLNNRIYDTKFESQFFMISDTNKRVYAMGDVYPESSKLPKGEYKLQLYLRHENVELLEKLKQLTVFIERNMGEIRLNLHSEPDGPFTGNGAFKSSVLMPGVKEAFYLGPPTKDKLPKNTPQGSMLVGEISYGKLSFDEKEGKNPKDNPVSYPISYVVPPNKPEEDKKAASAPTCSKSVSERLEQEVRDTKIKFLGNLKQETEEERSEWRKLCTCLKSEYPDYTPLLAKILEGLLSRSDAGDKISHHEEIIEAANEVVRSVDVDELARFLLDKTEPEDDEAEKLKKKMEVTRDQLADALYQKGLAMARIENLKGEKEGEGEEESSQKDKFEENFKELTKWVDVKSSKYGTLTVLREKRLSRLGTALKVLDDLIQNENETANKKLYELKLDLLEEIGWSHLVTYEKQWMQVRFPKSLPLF
The assay is described as above. As to conditions: 1-5 mM SA, HBS-EP pH 7.4 (SPR); competes with 3AESA and 4AzSA.

Structures are written as SMILES.

`[N-]=[N+]=Nc1ccc(C(=O)O)c(O)c1` [4AzSA]: the “UV photo-crosslinking, anti-SA immunoblot” value at NPR1 was “NPR1 bound and was crosslinked to 4AzSA; this crosslinking was suppressed by increasing levels of SA”.
In the case of `O=C(O)c1ccccc1O` [SA], the “SPR competition on 3AESA chip; competition of 4AzSA photo-crosslinking” value is “bound 3AESA and crosslinked to 4AzSA in an SA-inhibitable manner, indicating that they are SABPs” at HPR2; “SA competes with 3AESA and 4AzSA for binding by TRX-m1, TPPII, SHM4, and LOX2” at SHM4; “SA competes with 3AESA and 4AzSA for binding by TRX-m1, TPPII, SHM4, and LOX2” on TPPII.

The values above are taken from publication PMC4290489, “Identification of multiple salicylic acid-binding proteins using two high throughput screens” (Frontiers in Plant Science, 2015).
